Data: patent US20220389109A1, “Management of conditions other than multiple sclerosis in ofatumumab-treated patients” (Novartis AG, priority 2019, published 2022)
Like-named read-outs stand apart in the source and are kept apart here.

Key:
[1] = tested on: IgG, B-cell subtypes, adverse events; conditions: human, in vivo
Protocol: MS patients are treated with either ofatumumab or Ocrevus (ocrelizumab). Selected patients having psoriatic arthritis are monitored under a special study program. […] Some of them cannot take a disease-modifying antirheumatic drugs (DMARD) such as • Leflunomide (Arava), • Methotrexate (Otrexup, Rasuvo, Rheumatrex, Trexall) or • Sulfasalazine (Azulfidine).
Thus, they are treated with an immunosuppressant, i.e. one of • Azathioprine (Imuran, Azasan) or • Cyclosporine (Gengraf, Neoral, Sandimmune).

[2] = tested on: serum immunoglobulin (IgG); conditions: cited from earlier work
total immunoglobulins = conditions: over the controlled period of the studies, mainly driven by reduction in IgM; cited from earlier work
IgM = conditions: in vivo; cited from earlier work
[3] = tested on: Immunoglobulin G, Plasma/Serum; set-up: species or system human; conditions: in vivo
Protocol: (§1) ASCLEPIOS I and II are double-blind, double-dummy, active comparator-controlled, parallel-group, innovative, adaptive design, multicentre trials. Patients were randomised (1:1) to receive either ofatumumab 20 mg sc injections every 4 weeks (after an initial loading regimen of 20 mg sc doses on Days 1, 7 and 14) or teriflunomide 14 mg orally once daily, for up to 30 months. The studies have flexible durations, with termination occurring in the blinded core treatment epoch according to pre-specified criteria. Patients aged 18-55 years with an Expanded Disability Status Scale (EDSS) score (according to Kurtzke, Neurology. 1983, November; 33(11): 1444-52) of 0-5.5 at screening who experienced ≥1 relapse in the past year or ≥2 relapses in the past 2 years or a positive gadolinium-enhancing (Gd+) MRI scan during the year before randomisation were included.
(§2) Serum IgG/IgM levels were monitored at baseline, Week (W) 4, W12 and every 12 weeks, see FIG. 1. […] Reference is made to FIG. 1.
• At each visit-window, only patients with a value at both Baseline and that visit-window are included.

[4] = tested on: urinary tract infections, B-cell subtypes; conditions: human, in vivo
From the text: A first group of patients is monitored after an ischemic stroke. A sub-group of the patients are expected to have difficulty with urinary leakage or are not able to empty their bladder completely because of muscle weakness. For these reasons, a catheter will be placed inside the bladder. However, there is an increased risk of urinary tract infections related to the use of a catheter. These infections will be treated with one of • Trimethoprim/sulfamethoxazole (Bactrim, Septra, others), • Fosfomycin (Monurol), • Nitrofurantoin (Macrodantin, Macrobid), • Cephalexin (Keflex) or • Ceftriaxone.
A second group of patients consists of ofatumumab-treated MS patients. A sub-group of the patients develops adverse events, including urinary tract infections. These infections are treated with one of • Trimethoprim/sulfamethoxazole (Bactrim, Septra, others), • Fosfomycin (Monurol), • Nitrofurantoin (Macrodantin, Macrobid), • Cephalexin (Keflex) or • Ceftriaxone.

MS patients = conditions: cited from earlier work; for reduction in annualized relapse rate compared to teriflunomide: p<0.001
[5] = tested on: total B cells (CD19+ CD45+), CD20+ CD3+ T cells; assay: APLIOS Phase 2 study: B and T-cell subsets in blood by FACS; assay type: in vivo, human; conditions: 20 mg s.c.
Protocol: APLIOS was a 12-week, open-label, Phase 2 bioequivalence study. Patients received ofatumumab 20 mg (0.4 mL) s.c. loading doses on Days 1, 7 and 14, and maintenance doses every 4 weeks from Week 4 via a prefilled syringe or an autoinjector pen (SensoReady). Changes in B and T-cell subsets were analysed longitudinally in blood samples of a group of patients using fluorescence-activated cell sorting (FACS).

[6] = set-up: species or system human; conditions: in vivo
Protocol: as §1, §2

[7] = tested on: (total) IgG, B-cell subtypes; conditions: human, in vivo
Protocol: Ofatumumab is administered s.c. to RRMS patients. If injection-related reactions occurs, symptomatic treatment is provided. For patients who experienced pain, redness or itching, hydrocortisone cream is applied after the injection to help with itching, redness and swelling. A pain reliever is also be used.

ocrelizumab
adverse events (e.g. infections) after treatment with the immunosuppressant [1]: significantly more adverse events | reduction of IgG levels ([2]; after two years (96 weeks), pooled OPERA): approx. 5% | reduction in serum Ig levels, approximate mean rate ([2]; assessed over 5.5 years): 3-4 % per year | change in total immunoglobulins (total immunoglobulins): decrease in total immunoglobulins

rituximab
effect on IgM levels (IgM): depression of IgM levels

ofatumumab
follicular B-cell subtype [1]: marked decrease | level of IgG versus Ocrevus-treated patients [1]: significantly higher | marginal zone and germinal center B-cell subtypes [1]: less affected | IgG decrease as compared with teriflunomide-treated patients [3]: less pronounced and shorter | turning point at which the trend of decreasing IgG levels reverses [3]: 36 week | follicular B-cell subtype [4]: marked decrease | management of urinary tract infections [4]: No significant difference | marginal zone and germinal center B-cell subtypes [4]: less affected | reduction in annualized relapse rate compared to teriflunomide (MS patients; ASCLEPIOS I): 50.5% | reduction in annualized relapse rate compared to teriflunomide (MS patients; ASCLEPIOS II): 58.5% | suppression of gadolinium (Gd) T1 lesions compared to Aubagio (MS patients; in vivo): highly significant suppression | relative risk reduction in 6-month CDP versus Aubagio (MS patients; pre-specified pooled analyses, p=0.012): 32.5% | depletion of CD20+ CD3+ T cells [5]: rapidly and potently depleted | depletion of memory B cells (CD19+ CD45+ CD27+) compared with naïve B cells [5]: more efficient depletion | median total B-cell levels ([5]; by Day 7 through Day 14 of the loading regimen, maintained for remaining study duration): ≤ 5 cells/μL | depletion in total B cells (CD19+ CD45+) ([5]; measured on Day 4 and Day 7): rapid and sustained depletion | incidence of infections [6]: Advantageous low incidence | combined immunosuppression or toxicity of ofatumumab and hydrocortisone [7]: no evidence | follicular B-cell subtype [7]: marked decrease | marginal zone and germinal center B-cell subtypes [7]: less affected | level of (total) IgG in patients with injection-related reactions versus without reactions and hydrocortisone ([7]; sc): comparable
